Where two headings read alike, the source gives them in different places.
How the values were obtained:
[1] = assay type: in vivo, human; conditions: for concentration at 6 days: human, cerebrospinal fluid, oral
[2] = system: rodent and non-human primates; conditions: daily dosing between 13 and 39 weeks duration; cited from earlier work
[3] = 7-day multiple ascending dose; assay type: in vivo, human; conditions: for accumulation of exposures at steady-state: once daily 7 days; for AUC0 - ∞/D / Cmax/D: HV N = 6, mean (SD)
[4] = system: participants with mild-to-moderate PD; assay: Functional assessments of motor and non-motor features of PD; assay type: in vivo, human; conditions: baseline to Day 7
[5] = system: older healthy adults or participants with PD; assay: Safety and tolerability; assay type: in vivo, human
[6] = system: models of inherited or sporadic Parkinson’s-like disease; conditions: once daily oral administration; cited from earlier work
[7] = Single ascending dose; assay type: in vivo, human; conditions: for dose linearity of single dose PK: Cmax and AUC0 - inf; for AUC0 - ∞/D / Cmax/D / tlag: fed, older healthy adults N = 6, mean (SD)
[8] = 7-day MAD plasma pharmacokinetics, participants with PD; assay type: in vivo; conditions: human, oral
[9] = system: c-Abl activation; conditions: once-daily oral administration; cited from earlier work
[10] = system: PD features; conditions: double blind clinical studies; cited from earlier work
[11] = DAY 1 of 7-day dosing, 12.5 mg once daily, plasma
[12] = DAY 1 of 7-day dosing, 25.0 mg once daily, plasma
[13] = DAY 1 of 7-day dosing, 200 mg once daily, plasma
[14] = DAY 7 of 7-day dosing, 25.0 mg once daily, plasma
[15] = DAY 7 of 7-day dosing, 200.0 mg once daily, plasma
[16] = SAD 12.5 mg single oral dose, plasma
[17] = SAD 25.0 mg single oral dose, plasma
[18] = SAD 37.5 mg single oral dose, plasma
[19] = SAD 75.0 mg single oral dose, plasma
[20] = SAD 100 mg single oral dose, plasma
[21] = SAD 125 mg single oral dose, plasma
[22] = SAD 175 mg single oral dose, plasma
[23] = SAD 250 mg single oral dose, plasma
[24] = SAD 325 mg single oral dose, plasma

Compound `Cc1ccc(NC(=O)c2ccc(CN3CCN(C)CC3)cc2)cc1Nc1nccc(-c2cncc(-c3oncc3C)c2)n1` [Risvodetinib] has a concentration at 6 days ([1]; 25 mg) of 4.51 ng/mL, a concentration at 6 days ([1]; 50 mg) of 3.07 ng/mL and a concentration at 6 days ([1]; 100 mg) of 8.42 ng/mL. For the same compound, the “detection in cerebrospinal fluid” value ([1]; pre-dose on the last dosing day of a 7-day dosing study, older healthy adults and PD participants) was “detected”, the “histopathology in the pancreas” value [2] was “no histopathology in the pancreas was observed” and the “accumulation of exposures at steady-state” value ([3]; 100 mg or 200 mg, Day 7 comparable to Day 1) was “little or no accumulation”. For the same compound, the “AUC0 - ∞/D” value [3, 11] was 706 (424) h*ng/mL/mg, the Cmax/D [3, 11] was 43.0 (23.1) ng/mL/mg and the “AUC0 - ∞/D” value [3, 12] was 780 (305) h*ng/mL/mg. For the same compound, the Cmax/D [3, 12] was 41.5 (22.3) ng/mL/mg, the “AUC0 - ∞/D” value [3, 13] was 759 (263) h*ng/mL/mg and the Cmax/D [3, 13] was 32.5 (6.4) ng/mL/mg. For the same compound, the “AUC0 - ∞/D” value [3, 14] was 1020 (370) h*ng/mL/mg, the Cmax/D [3, 14] was 70.9 (32.3) ng/mL/mg and the “AUC0 - ∞/D” value [3, 15] was 486 (116) h*ng/mL/mg. For the same compound, the Cmax/D [3, 15] was 29.8 (5.6) ng/mL/mg, the time to steady-state ([3]; doses > 50 mg once daily (higher doses)) was “within one day” and the “accumulation of exposures at steady-state” value ([3]; doses less than or equal to 50 mg) was “approximately two-fold”. The time to steady-state ([3]; doses ≤50 mg once daily) was ≤ 5 days, the AUC(0-inf) ([3]; human, plasma, oral, 12.5 mg) was 8830 ng·h/mL and the AUC(0-inf) ([3]; human, plasma, oral, 25 mg) was 19500 ng·h/mL. For the same compound, the AUC(0-inf) ([3]; human, plasma, oral, 200 mg) was 152000 ng·h/mL, the half-life ([3]; human, plasma, oral, half-life, overall statement in discussion) was ~24 h and the “increase of mean score for MDS-UPDRS Part III” value ([4]; 50 mg once daily 7 days) was 6.2 (±9.50) points. The “increase of mean score for MDS-UPDRS Part III” value ([4]; 100 mg once daily 7 days) was 7.4 (±14.1) points, the “Severity of treatment-related adverse event: Dermatitis” value ([5]; 50 mg, 7-day, 1x/day, PD patients) was “Mild” and the “Severity of treatment-related adverse event: Palpitations” value ([5]; 75 mg, Single Dose, healthy subjects) was “Mild”. For the same compound, the “Severity of treatment-related adverse event: Constipation” value ([5]; 100 mg, 7-day, 1x/day, PD patients) was “Mild”, the “Severity of treatment-related adverse event: Elevated Lipase” value ([5]; 200 mg, 7-day, 1x/day, healthy subjects) was “Mild” and the “Severity of treatment-related adverse event: Diarrhea” value ([5]; 325 mg, Single Dose, healthy subjects) was “Mild”. The “deaths and serious adverse events” value ([5]; 94 healthy subjects and 14 participants with PD) was “no deaths, no serious adverse events”, the “adverse events deemed possibly or probably related to the active drug” value ([5]; among all 36 recorded adverse events, SAD, MAD and MAD-PD, all mild) was 11 and the QTcF prolongation ([5]; any dose or dose duration) was “No participants displayed evidence of QTcF prolongation”. The “orthostatic hypotension, heart rate, heart rhythm, blood pressure” value ([5]; participants with PD) was “did not exacerbate pre-existing orthostatic hypotension”, the “effect in models of inherited or sporadic Parkinson’s-like disease” value [6] was “therapeutically effective” and the “dose linearity of single dose PK” value [7] was “approximately linear between 12.5 mg and 175 mg”. For the same compound, the “dose linearity of single dose PK” value ([7]; listed as risvodetinib (IkT-148009)) was “approximately linear between 12.5 mg and 200 mg”, the “AUC0 - ∞/D” value [7, 16] was 758 (345) h*ng/mL/mg and the Cmax/D [7, 16] was 35.8 (26.6) ng/mL/mg. For the same compound, the tlag [7, 16] was 1.09 (1.48) h, the “AUC0 - ∞/D” value [7, 17] was 936 (314) h*ng/mL/mg and the Cmax/D [7, 17] was 37.8 (13.9) ng/mL/mg. For the same compound, the tlag [7, 17] was 0.614 (0.367) h, the “AUC0 - ∞/D” value [7, 18] was 823 (776) h*ng/mL/mg and the Cmax/D [7, 18] was 36.0 (21.2) ng/mL/mg. For the same compound, the tlag [7, 18] was 0.642 (0.393) h, the “AUC0 - ∞/D” value [7, 19] was 802 (342) h*ng/mL/mg and the Cmax/D [7, 19] was 36.6 (13.6) ng/mL/mg. For the same compound, the tlag [7, 19] was 0.342 (0.143) h, the “AUC0 - ∞/D” value [7, 20] was 1150 (285) h*ng/mL/mg and the Cmax/D [7, 20] was 53.2 (12.8) ng/mL/mg. For the same compound, the tlag [7, 20] was 0.414 (0.350) h, the “AUC0 - ∞/D” value [7, 21] was 879 (370) h*ng/mL/mg and the Cmax/D [7, 21] was 42.3 (10.1) ng/mL/mg. For the same compound, the tlag [7, 21] was 0.306 (0.284) h, the “AUC0 - ∞/D” value [7, 22] was 982 (359) h*ng/mL/mg and the Cmax/D [7, 22] was 35.0 (13.7) ng/mL/mg. For the same compound, the tlag [7, 22] was 0.0944 (0.146) h, the “AUC0 - ∞/D” value [7, 23] was 858 (417) h*ng/mL/mg and the Cmax/D [7, 23] was 28.9 (6.55) ng/mL/mg. For the same compound, the tlag [7, 23] was 0.547 (0.507) h, the “AUC0 - ∞/D” value [7, 24] was 749 (385) h*ng/mL/mg and the Cmax/D [7, 24] was 22.5 (9.71) ng/mL/mg. The tlag [7, 24] was 0.186 (0.250) h, the half-life ([7]; human, plasma, oral) was 24 to 39 h and the AUC(0-inf) ([8]; 50 mg) was 24500 ng·h/mL. The AUC(0-inf) ([8]; 100 mg) was 68700 ng·h/mL and the “effect in the MPTP acute toxicity model” value [9] was “blocked disease initiation and progression”.
For `Cc1cn(-c2cc(NC(=O)c3ccc(C)c(Nc4nccc(-c5cccnc5)n4)c3)cc(C(F)(F)F)c2)cn1` [nilotinib], the “improvement of PD features” value [10] is given as “failure”.

Source: publication PMC10977428 (Journal of Parkinson's Disease, 2024)
